Reference: patent US8822500B2, “Tyrosine kinase inhibitors” (Chembridge Corporation, priority 2008, dated 2014)
“And” between values parts separate entries of the source, which are not always exact repeats. Equal values may be shown once. Read-outs that look alike come from different tables or passages of the source.

Columns and labels:
[1] = molecular target: TrkA (Homo sapiens (Human), UniProt P04629); experiment: In vitro kinase activity assay (LANCE TR-FRET); format: biochemical;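 further: kinase reaction with poly-GT peptide substrate and ATP, phosphorylated product quantified by time-resolved FRET, eleven-point dose curves from 10^−11 to 10^−5 M in triplicate, DMSO as negative control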
[2] = molecular target: ALK (Homo sapiens (Human), UniProt Q9UM73); experiment: In vitro kinase activity assay (LANCE TR-FRET); format: biochemical;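 further: kinase reactions with ATP and a poly-GT peptide substrate, phosphorylated product read by time-resolved FRET, 11-point curve from 10^−11 to 10^−5 M, DMSO as negative control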
[3] = Caco-2 cell permeation study; format: in vitro ADME; details: human; for Papp A→B at 2 h, 10 μM: Caco-2, pH 6.5, 10 μM, apical pH 6.5, 2 h; for Papp B→A at 2 h, 10 μM: Caco-2, pH 7.4, 10 μM, basolateral pH 7.4, 2 h; for efflux ratio at 2 h, 10 μM: Caco-2, Caco-2;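 on all read-outs here: Caco-2 monolayers grown for 21–28 days with integrity confirmed by TEER, apical buffer HBSS with MES, basolateral buffer HBSS with HEPES, compound levels quantified by LC/MS/MS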
[4] = tested on: Caco-2 cells; experiment: Caco-2 cell permeation study; format: in vitro ADME; details: 10 μM; for Papp (10−6 cm/sec) A to B: apical pH 6.5, 2 h; for Papp (10−6 cm/sec) B to A: basolateral pH 7.4, 2 h;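 on all read-outs here: Caco-2 monolayers grown for 21–28 days with integrity confirmed by TEER, apical buffer HBSS with MES, basolateral buffer HBSS with HEPES, compound levels quantified by LC/MS/MS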
[5] = in vitro; details: human, microsomes; for microsomal CLint at 0.5 μM: pH 7.4, Human LM-P1 CL (ul/min/mg); for half-life at 0.5 μM: pH 7.4, Human LM-P1 Half-life (min)
[6] = in vitro; details: rat, microsomes; for half-life at 0.5 μM: pH 7.4; for microsomal CLint at 0.5 μM: pH 7.4, Rat LM-P1 CL (ul/min/mg)
[7] = tested on: SUDHL-1 lymphoma cells; experiment: Cellular assay, 3 day cell viability (WST-1); format: cell-based; details: Homo sapiens, SU-DHL-1, 72 h; 3 days, WST-1; read-out: GTx-SUDHL-1 IC50
[8] = tested on: U937 lymphoma cells; experiment: Cellular assay, 3 day cell viability (WST-1); format: cell-based; details: Homo sapiens, U-937, 72 h; 3 days, WST-1; read-out: GTx-U937 IC50
[9] = tested on: K299 lymphoma cells; experiment: Cellular assay, 3 day cell viability (WST-1); format: cell-based; details: 72 h, 3 days, read-out: GTx-K299 IC50
[10] = Metabolic stability, Phase I microsome reactions; format: in vitro ADME, mouse; details: mouse, liver microsomes, pH 7.4, Phase I only, 1.0 mg/ml microsomes
[11] = Rat pharmacokinetics / bioavailability; format: in vivo

Chain of TrkA (P04629 33-796): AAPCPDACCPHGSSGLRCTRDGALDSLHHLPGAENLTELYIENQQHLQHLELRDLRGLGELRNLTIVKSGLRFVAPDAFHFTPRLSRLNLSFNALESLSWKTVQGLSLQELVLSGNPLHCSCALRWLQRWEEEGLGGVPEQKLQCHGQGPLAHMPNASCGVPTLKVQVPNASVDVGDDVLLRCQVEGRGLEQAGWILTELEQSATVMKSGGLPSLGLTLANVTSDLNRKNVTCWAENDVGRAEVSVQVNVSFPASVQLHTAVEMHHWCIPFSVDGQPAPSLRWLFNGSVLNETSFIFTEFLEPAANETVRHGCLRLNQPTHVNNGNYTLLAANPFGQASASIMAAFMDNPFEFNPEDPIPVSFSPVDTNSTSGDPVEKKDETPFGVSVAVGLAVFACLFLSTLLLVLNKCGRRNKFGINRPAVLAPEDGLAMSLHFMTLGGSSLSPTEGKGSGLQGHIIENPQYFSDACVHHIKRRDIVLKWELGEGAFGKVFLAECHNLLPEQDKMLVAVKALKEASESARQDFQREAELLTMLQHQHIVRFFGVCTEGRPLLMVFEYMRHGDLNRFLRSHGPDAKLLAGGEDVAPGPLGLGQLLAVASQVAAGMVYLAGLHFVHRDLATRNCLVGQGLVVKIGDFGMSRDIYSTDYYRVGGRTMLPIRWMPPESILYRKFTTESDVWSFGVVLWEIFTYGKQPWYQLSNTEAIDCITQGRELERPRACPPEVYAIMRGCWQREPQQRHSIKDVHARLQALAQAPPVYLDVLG
Chain of ALK (Q9UM73 19-1620): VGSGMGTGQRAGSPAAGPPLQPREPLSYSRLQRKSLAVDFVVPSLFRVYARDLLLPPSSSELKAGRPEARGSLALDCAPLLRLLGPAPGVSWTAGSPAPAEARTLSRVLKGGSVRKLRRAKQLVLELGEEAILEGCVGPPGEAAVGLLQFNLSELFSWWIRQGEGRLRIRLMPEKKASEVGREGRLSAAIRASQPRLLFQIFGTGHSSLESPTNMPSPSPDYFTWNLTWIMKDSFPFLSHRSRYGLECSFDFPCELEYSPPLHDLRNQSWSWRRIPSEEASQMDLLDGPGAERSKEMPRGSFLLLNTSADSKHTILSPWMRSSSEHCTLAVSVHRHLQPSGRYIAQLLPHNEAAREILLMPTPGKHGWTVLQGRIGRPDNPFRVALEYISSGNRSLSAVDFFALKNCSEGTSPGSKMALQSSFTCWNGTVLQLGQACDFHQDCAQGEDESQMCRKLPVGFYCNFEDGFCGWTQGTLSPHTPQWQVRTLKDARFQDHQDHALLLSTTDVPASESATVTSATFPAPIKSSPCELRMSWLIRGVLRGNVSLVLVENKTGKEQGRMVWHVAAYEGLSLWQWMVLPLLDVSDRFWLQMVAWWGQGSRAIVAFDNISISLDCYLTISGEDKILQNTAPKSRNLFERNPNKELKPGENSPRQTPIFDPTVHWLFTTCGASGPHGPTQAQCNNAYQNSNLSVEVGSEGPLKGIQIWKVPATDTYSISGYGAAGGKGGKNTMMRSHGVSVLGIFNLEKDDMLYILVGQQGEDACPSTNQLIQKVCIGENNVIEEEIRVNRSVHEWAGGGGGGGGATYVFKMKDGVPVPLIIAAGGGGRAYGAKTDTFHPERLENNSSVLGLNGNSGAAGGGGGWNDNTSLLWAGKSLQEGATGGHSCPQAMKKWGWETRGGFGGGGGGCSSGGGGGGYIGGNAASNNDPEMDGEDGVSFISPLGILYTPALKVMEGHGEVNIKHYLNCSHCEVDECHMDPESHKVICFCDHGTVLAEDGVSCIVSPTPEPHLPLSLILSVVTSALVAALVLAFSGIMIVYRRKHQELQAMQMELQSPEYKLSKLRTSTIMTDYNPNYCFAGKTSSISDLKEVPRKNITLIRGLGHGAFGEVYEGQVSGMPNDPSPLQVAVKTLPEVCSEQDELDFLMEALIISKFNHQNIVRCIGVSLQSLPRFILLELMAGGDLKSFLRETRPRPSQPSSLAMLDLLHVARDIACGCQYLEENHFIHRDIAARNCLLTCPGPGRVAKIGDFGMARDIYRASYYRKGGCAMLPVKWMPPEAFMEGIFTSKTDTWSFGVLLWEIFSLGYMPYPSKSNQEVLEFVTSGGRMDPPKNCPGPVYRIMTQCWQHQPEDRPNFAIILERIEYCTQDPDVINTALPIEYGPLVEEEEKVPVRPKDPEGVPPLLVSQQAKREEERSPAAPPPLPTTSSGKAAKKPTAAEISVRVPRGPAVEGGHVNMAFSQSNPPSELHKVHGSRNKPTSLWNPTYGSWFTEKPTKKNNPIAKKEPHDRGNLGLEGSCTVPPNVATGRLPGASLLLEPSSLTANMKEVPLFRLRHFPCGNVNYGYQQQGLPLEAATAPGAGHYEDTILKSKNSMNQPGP

Row | SMILES | IC50 ([1]; read-out: TrkA (nM) IC50) | IC50 ([2]; read-out: ALK (nM) IC50) | IC50 [7] [nM] | IC50 [8] [nM] | IC50 [9] [nM] | other results
1 | Cc1c2c(cc3[nH]c(-c4c(NC(C)Cc5c(F)c(F)cc(F)c5F)cc[nH]c4=O)nc13)C(=O)N(C1CCN(C)CC1)C2=O (centres unmarked) [Compound 29, 4-Methyl-6-(1-methylpiperidin-4-yl)-2-(2-oxo-4-(1-(2,3,5,6-tetrafluorophenyl)propan-2-ylamino)-1,2-dihydropyridin-3-yl)imidazo[4,5-f]isoindole-5,7(1H,6H)-dione] | 165 nM | 231 nM |  |  |  | 
2 | Cc1ccc(F)cc1CC(C)Nc1cc[nH]c(=O)c1-c1nc2cc3c(cc2[nH]1)CNC3=O (centres unmarked) [Compound 52] |  |  |  |  |  | Papp A→B at 2 h, 10 μM [3]: 9.3 ×10⁻⁶ cm/s; Papp B→A at 2 h, 10 μM [3]: 7.4 ×10⁻⁶ cm/s; Papp (10−6 cm/sec) A to B [4]: 5.0 10−6 cm/sec and 8.9 10−6 cm/sec; Papp (10−6 cm/sec) B to A [4]: 10.2 10−6 cm/sec and 5.2 10−6 cm/sec; microsomal CLint at 0.5 μM [5]: 134 µL/min/mg; half-life at 0.5 μM [5]: 5.17 min; half-life at 0.5 μM [6]: 2.51 min; microsomal CLint at 0.5 μM [6]: 276 µL/min/mg
3 | CC(Cc1cc(F)ccc1F)Nc1cc[nH]c(=O)c1-c1nc2cc3c(cc2[nH]1)C(=O)N(CC(O)CO)C3=O [Compound 34, 2-(4-(1-(2,5-Difluorophenyl)propan-2-ylamino)-2-oxo-1,2-dihydropyridin-3-yl)-6-(R)-2,3-dihydroxypropyl)imidazo[4,5-f]isoindole-5,7(1H,6H)-dione] | 6.97 nM and 3.7 nM | 13.8 nM and 4.71 nM | > 10000 | > 10000 | > 10000 | IC50 ([1]; read-out: GTx-TrKA IC50): 7 nM; IC50 ([2]; read-out: GTx-ALK IC50): 14 nM; efflux ratio at 2 h, 10 μM [3]: > 5.9; Papp B→A at 2 h, 10 μM [3]: 1.17 ×10⁻⁶ cm/s; Papp (10−6 cm/sec) B to A [4]: 1.17 10−6 cm/sec; microsomal CLint at 0.5 μM [5]: 9.16 µL/min/mg; half-life at 0.5 μM [5]: 75.7 min; half-life at 0.5 μM [6]: 33.6 min; microsomal CLint at 0.5 μM [6]: 20.6 µL/min/mg
4 | C[C@@H](Cc1cc(F)cc(F)c1F)Nc1cc[nH]c(=O)c1-c1nc2cc3c(cc2[nH]1)C(=O)N([C@@H](C)Cc1cc(F)cc(F)c1F)C3=O (stereo in doubt) [Compound 40, 2-(2-oxo-4-(1-(2,3,5-trifluorophenyl)propan-2-ylamino)-1,2-dihydropyridin-3-yl)-6-(1-(2,3,5-trifluorophenyl)propan-2-yl)imidazo[4,5-f]isoindole-5,7(1H,6H)-dione] | > 10000 nM | > 10000 nM | > 10000 | > 10000 | > 10000 | 
5 | Cc1ccc(F)cc1CC(C)Nc1cc[nH]c(=O)c1-c1nc2cc3c(cc2[nH]1)CN(C(C)C)C3=O (centres unmarked) [Compound 39, 2-(4-((1-(5-Fluoro-2-methylphenyl)propan-2-yl)amino)-2-oxo-1,2-dihydropyridin-3-yl)-6-isopropyl-6,7-dihydroimidazo[4,5-f]isoindol-5(1H)-one] |  |  | 2800 | > 3000 | > 3000 | 
6 | CC(Cc1cc(F)ccc1F)Nc1cc[nH]c(=O)c1-c1nc2cc3c(cc2[nH]1)CN(C(C)C)C3=O (centres unmarked) [Compound 37, 2-(4-((1-(2,5-Difluorophenyl)propan-2-yl)amino)-2-oxo-1,2-dihydropyridin-3-yl)-6-isopropyl-6,7-dihydroimidazo[4,5-f]isoindol-5(1H)-one] |  |  | 2770 | > 3000 | 1830 | 
7 | CC(Cc1c(F)c(F)cc(F)c1F)Nc1cc[nH]c(=O)c1-c1nc2cc3c(cc2n1C)CN(C)C3=O (stereo not drawn) [Compound 43, Trans-1,6-Dimethyl-2(2-oxo-4-(1-(2,3,5,6-tetrafluorophenyl)propan-2-ylamino)-1,2-dihydropyridin-3-yl)-6,7-dihydroimidazo[4,5-f]isoindol-5(1H)-one] | 9490 nM | > 10000 nM | > 10000 | > 10000 | > 10000 | IC50 ([1]; read-out: GTx-TrKA IC50): 9500 nM; IC50 ([2]; read-out: GTx-ALK IC50): > 10000 nM
8 | C[C@@H](Cc1cc(F)ccc1F)Nc1cc[nH]c(=O)c1-c1nc2cc3c(cc2[nH]1)C(=O)N(C)C3=O [Compound 32, 2-(4-(1-(2,5-Difluorophenyl)propan-2-ylamino)-2-oxo-1,2-dihydropyridin-3-yl)-6-methylimidazo[4,5-f]isoindole-5,7(1H,6H)-dione] | 30 to 100 nM | > 300 nM | 957 | > 3000 | 784 | IC50 ([1]; read-out: GTx-TrKA IC50): > 30 nM; microsomal CLint at 0.5 μM ([10]; read-out: Mouse LM-P1 CL): < 5.8 µL/min/mg; half-life at 0.5 μM ([10]; read-out: Mouse LM-P1 Half-life): > 120 min; IC50 ([2]; read-out: GTx-ALK IC50): > 300 nM; Papp A→B at 2 h, 10 μM [3]: < 0.2 ×10⁻⁶ cm/s; Papp (10−6 cm/sec) A to B [4]: >0.2 10−6 cm/sec; Papp (10−6 cm/sec) B to A [4]: 0.1 10−6 cm/sec; microsomal CLint at 0.5 μM [5]: 7.81 µL/min/mg; half-life at 0.5 μM [5]: 88.7 min; half-life at 0.5 μM [6]: > 120 min; microsomal CLint at 0.5 μM [6]: < 5.8 µL/min/mg
9 | CC(Cc1cc(F)ccc1F)Nc1cc[nH]c(=O)c1-c1nc2cc3c(cc2[nH]1)C(=O)N(C(C)C)C3=O (centres unmarked) [Compound 36, 2-(4-((1-(2,5-Difluorophenyl)propan-2-yl)amino)-2-oxo-1,2-dihydropyridin-3-yl)-6-isopropylimidazo[4,5-f]isoindole-5,7(1H,6H)-dione] |  |  | 2770 | > 3000 | 1830 | 
10 | CC(C)NCC(O)COc1cccc2ccccc12 (centres unmarked) [Propranolol, reference compound] |  |  |  |  |  | Pos Ctrl Recovery ([4]; positive control): 63% and 58% and 26%
11 | CC(Cc1cc(F)ccc1F)Nc1cc[nH]c(=O)c1-c1nc2cc3c(cc2[nH]1)C(=O)N(CCN(C)C)C3=O (centres unmarked) [Compound 17, 2-(4-(1-(2,5-Difluorophenyl)propan-2-ylamino)-2-oxo-1,2-dihydropyridin-3-yl)-6-(2-(dimethylamino)ethyl)imidazo[4,5-f]isoindole-5,7(1H,6H)-dione] | 17.5 nM | 38.9 nM |  |  |  | microsomal CLint at 0.5 μM [5]: 8.77 µL/min/mg; half-life at 0.5 μM [5]: 79.1 min; half-life at 0.5 μM [6]: 25.6 min; microsomal CLint at 0.5 μM [6]: 27.1 µL/min/mg
12 | Cc1c2c(cc3[nH]c(-c4c(NC(C)Cc5c(F)c(F)cc(F)c5F)cc[nH]c4=O)nc13)CN(C1CCN(C)CC1)C2=O (centres unmarked) [Compound 24, 4-Methyl-6-(1-methylpiperidin-4-yl)-2-(2-oxo-4-(1-(2,3,5,6-tetrafluorophenyl)propan-2-ylamino)-1,2-dihydropyridin-3-yl)-6,7-dihydroimidazo[4,5-f]isoindol-5(1H)-one] | 10.4 nM | 23.7 nM |  |  |  | 
13 | CC(Cc1c(F)c(F)cc(F)c1F)Nc1cc[nH]c(=O)c1-c1nc2cc3c(cc2[nH]1)C(=O)N(C)C3 (centres unmarked) [Compound 42, 6-Methyl-2-(2-oxo-4-(1-(2,3,5,6-tetrafluorophenyl)propan-2-ylamino)-1,2-dihydropyridin-3-yl)-6,7-dihydroimidazo[4,5-f]isoindole-5(1H)-one] | 7.27 nM | 17.5 nM | > 10000 | > 10000 | > 10000 | IC50 ([1]; read-out: GTx-TrKA IC50): 7 nM; IC50 ([2]; read-out: GTx-ALK IC50): 18 nM; efflux ratio at 2 h, 10 μM [3]: 1; Papp A→B at 2 h, 10 μM [3]: 0.24 ×10⁻⁶ cm/s; Papp B→A at 2 h, 10 μM [3]: 0.24 ×10⁻⁶ cm/s; IV_AUC0-1440 Rat 10 mpk ([11]; 10 mg/kg I.V.): 232 µg·min/mL; PO_AUC0-1440 Rat 10 mpk ([11]; 10 mg/kg P.O.): 5.48 µg·min/mL; bioavailability ([11]; male, Sprague-Dawley, plasma, po, 10 mg/kg P.O., read-out: Rat F %): 2.36%
14 | Cc1ccc(F)cc1CC(C)Nc1cc[nH]c(=O)c1-c1nc2cc3c(cc2[nH]1)C(=O)N(C(C)C)C3=O (centres unmarked) [Compound 38, 2-(4-((1-(5-Fluoro-2-methylphenyl)propan-2-yl)amino)-2-oxo-1,2-dihydropyridin-3-yl)-6-isopropylimidazo[4,5-f]isoindole-5,7(1H,6H)-dione] |  |  | 2800 | > 3000 | > 3000 | 
